“Also recorded” adds a separate entry of the source.
Key:
[1] = system: JNK phosphorylation and caspase/PARP cleavage; assay: Western blotting for p21Cip1, p-JNK, caspases and PARP; type: cell-based, human
Experimental: (§1) MM cells were cultured with Velcade and/or Tubacin; harvested; washed; and lysed using lysis buffer: 50 mM Tris-HCl (pH 7.4), 150 mM NaCl, 1% NP-40, 5 mM EDTA, 5 mM NaF, 2 mM Na3VO4, 1 mM PMSF, 5 μg/ml leupeptine, and 5 μg/ml aprotinin. Cell lysates were subjected to SDS-PAGE, transferred to PVDF membrane (Bio-Rad Laboratories, Hercules, Calif.), and immunoblotted with Abs against specific proteins.
(§2) Cells cultured with tubacin and/or bortezomib were harvested; washed, and lysed using lysis buffer: 50 mM Tris-HCl (pH 7.4), 150 mM NaCl, 1% NP-40, 5 mM EDTA, 5 mM NaF, 1 mM Na3VO4, 1 mM PMSF, 5 μg/ml leupeptine, and 5 μg/ml aprotinin. Whole cell lysates were subjected to SDS-PAGE, transferred to nitrocellulose membrane (Bio-Rad Laboratories, Hercules, Calif.), and immunoblotted with specific Abs (31). Western blotting was done using anti-HDAC6, acetylated lysine, acetylated histone H3, acetylated histone H4, ubiquitin (Ub), phospho-SAPK (JNK), caspase-8 caspase-9, caspase-3, and PARP Abs (Cell Signaling, Beverly, Mass.); with anti-α-tubulin Ab (Santa Cruz Biotechnology, Santa Cruz, Calif.); as well as with anti-dynein Ab (Sigma, Saint Louis, Mo.). For immunoprecipitation, whole cell lysates were incubated with anti-Ub or dynein Abs overnight at 4° C., and then incubated with protein A/G PLUS-Agarose (Santa Cruz Biotechnology) for 2 h at 4° C., as in our prior study (31). Immunoprecipitates were then subjected to Western blotting for detection of HDAC6 and dynein.

MM.1S cells = assay: [3H]-thymidine uptake with or without IL-6; type: cell-based, human; conditions: tubacin 1.25-5 μM, IL-6 5-20 ng/ml, 48 h
Experimental: Proliferation was measured by ^3H-thymidine uptake. Briefly, MM cells (3×10^4 cells/well) were incubated in 96-well culture plates in the presence of media, Velcade and/or Tubacin for 48 h at 37° C. DNA synthesis was measured by [^3H]-thymidine ([^3H]-TdR, Perkin Elmer, Boston, Mass.) uptake. Cells were pulsed with [^3H]TdR (0.5 μCi/well) during the last 8 h of 48 h cultures. All experiments were performed in triplicate.

[2] = target: T1, interaction of HDAC6 with dynein (Homo sapiens, UniProt Q9UBN7); assay: Co-immunoprecipitation of HDAC6 with dynein or ubiquitinated proteins; type: cell-based; conditions: tubacin 2.5 and 5 μM, 8 h, MM.1S cells
T1 sequence (Q9UBN7 1-1215): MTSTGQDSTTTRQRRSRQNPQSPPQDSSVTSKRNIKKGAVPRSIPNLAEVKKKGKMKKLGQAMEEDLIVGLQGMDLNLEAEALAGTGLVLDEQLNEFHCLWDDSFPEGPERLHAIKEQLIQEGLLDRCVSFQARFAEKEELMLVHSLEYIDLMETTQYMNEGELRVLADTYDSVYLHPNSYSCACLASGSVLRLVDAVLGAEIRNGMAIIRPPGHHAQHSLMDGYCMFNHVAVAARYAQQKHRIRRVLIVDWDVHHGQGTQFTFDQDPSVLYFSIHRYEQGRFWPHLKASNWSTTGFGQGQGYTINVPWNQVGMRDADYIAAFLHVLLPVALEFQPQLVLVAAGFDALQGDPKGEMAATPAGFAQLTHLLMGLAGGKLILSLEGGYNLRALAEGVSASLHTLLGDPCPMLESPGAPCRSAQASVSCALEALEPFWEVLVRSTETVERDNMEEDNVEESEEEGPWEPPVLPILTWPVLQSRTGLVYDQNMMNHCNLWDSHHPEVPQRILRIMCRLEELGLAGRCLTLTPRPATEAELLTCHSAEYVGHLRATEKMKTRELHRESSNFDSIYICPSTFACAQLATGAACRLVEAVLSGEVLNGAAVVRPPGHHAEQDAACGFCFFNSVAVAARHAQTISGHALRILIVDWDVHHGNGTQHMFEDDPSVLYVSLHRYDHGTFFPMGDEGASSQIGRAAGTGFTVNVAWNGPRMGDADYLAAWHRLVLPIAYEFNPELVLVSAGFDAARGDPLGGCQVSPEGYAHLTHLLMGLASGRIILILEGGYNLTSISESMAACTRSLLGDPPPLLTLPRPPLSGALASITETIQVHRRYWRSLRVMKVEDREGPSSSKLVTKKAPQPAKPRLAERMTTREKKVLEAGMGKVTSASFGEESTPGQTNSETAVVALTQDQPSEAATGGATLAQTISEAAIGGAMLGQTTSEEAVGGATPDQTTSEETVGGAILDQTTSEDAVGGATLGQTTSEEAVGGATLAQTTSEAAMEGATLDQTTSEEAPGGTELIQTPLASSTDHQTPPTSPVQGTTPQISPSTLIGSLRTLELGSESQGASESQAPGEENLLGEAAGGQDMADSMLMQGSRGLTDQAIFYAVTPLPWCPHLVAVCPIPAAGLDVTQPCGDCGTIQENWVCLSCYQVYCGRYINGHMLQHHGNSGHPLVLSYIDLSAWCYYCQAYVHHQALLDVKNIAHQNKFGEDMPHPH
Experimental: as §2

[3] = system: MM.1S cells and RPMI cells; assay: Inhibition of protein catabolism in myeloma cells; type: cell-based; conditions: FIG. 18
HDAC6 = target: T2, HDAC6 (Homo sapiens, UniProt Q9UBN7); assay: Western blotting with anti-acetylated lysine / HDAC6 Abs; type: cell-based; parameters: MM.1S, U266, INA-6, RPMI8226, and RPMI-LR5 MM cell lines constitutively express HDAC6; endogenous in cells; host or cells: MM.1S, RPMI8226 and other MM cell lines; MM patient BMPCs/PBMCs
T2 sequence (Q9UBN7 1-1215): T1 sequence (Q9UBN7 1-1215)
Experimental: as §1, §2

A549 lung cancer cells = conditions: previously reported; cited from earlier work
[4] = system: polyubiquitinated proteins; assay: Western blotting with anti-Ub Ab; type: cell-based, human; conditions: tubacin alone
Experimental: as §2

MM.1S and RPMI cells = assay: Synergy with Velcade/Bortezomib in myeloma cell lines; type: cell-based

**Q.** Which “phosphorylation of JNK and caspase/PARP cleavage” value ([1]; MM.1S cells, tubacin 5 μM and/or bortezomib 5 nM, 24 h) does the source give for `O=C(CCCCCCC(=O)Nc1ccc([C@H]2O[C@@H](CSc3nc(-c4ccccc4)c(-c4ccccc4)o3)C[C@@H](c3ccc(CO)cc3)O2)cc1)NO` [tubacin] here?
**A.** does not trigger phosphorylation of JNK or caspase/PRAP cleavage

**Q.** And the “induction of p21Cip1 induced by bortezomib” value ([1]; tubacin 5 μM + bortezomib 5 nM, MM.1S, 24 h)?
**A.** inhibits induction of p21^Cip1 induced by bortezomib

**Q.** And the “induction of p21Cip1” value ([1]; tubacin 5 μM alone, MM.1S, 24 h)?
**A.** does not trigger induction of p21^Cip1

**Q.** What about the caspase-8/PARP cleavage ([1]; tubacin 10 μM, 0-24 h, MM.1S and RPMI8226 cells) of the same compound?
**A.** time-dependent caspase-8/PARP cleavage is induced; also recorded: induces cytotoxicity via activation of caspases

**Q.** And the “growth inhibitory / cytotoxic effect of tubacin in the presence of IL-6” value (MM.1S cells)?
**A.** maintained; also recorded: did not overcome

**Q.** And the “co-immunoprecipitation between HDAC6 and ubiquitinated proteins” value [2]?
**A.** unaffected

**Q.** And the “co-immunoprecipitation of HDAC6 with dynein” value [2]?
**A.** markedly inhibited in a dose-dependent fashion; also recorded: inhibits binding of HDAC6 with dynein

**Q.** And the “inhibition of protein catabolism” value [3]?
**A.** potent inhibitors of protein catabolism

**Q.** What about the “acetylation of α-tubulin” value (HDAC6; MM cell lines (MM.1S, RPMI8226), tubacin up to 5 μM, 24 h) of the same compound?
**A.** significantly induces aceylation of α-tubulin in a dose-dependent fashion; also recorded: causes tubulin hyperacetylation; also recorded: specifically induces acetylation of t-tubulin in a dose-dependent fashion; also recorded: specifically induces acetylation of α-tubulin

**Q.** And the “acetylation of tubulin in BMPCs” value (HDAC6; tubacin 5 μM, 12 h, BMPCs of an MM patient)?
**A.** markedly enhanced

**Q.** And the “acetylation of tubulin in PBMCs” value (HDAC6; tubacin 5 μM, 12 h, PBMCs of the same MM patient)?
**A.** but not in PBMCs

**Q.** What about the “time of peak acetylation of α-tubulin” value (HDAC6; tubacin 5 μM, RPMI8226 cells) of the same compound?
**A.** 12 h

**Q.** What about the “expression of HDAC6” value (HDAC6; tubacin treatment (data not shown)) of the same compound?
**A.** not altered

**Q.** What about the “histone acetylation, transcriptional profile, cell cycle, viability” value (A549 lung cancer cells) of the same compound?
**A.** no effect on histone acetylation, the transcriptional profile, cell cycle, or viability of A549 lung cancer cells

**Q.** And the polyubiquitinated proteins ([4]; MM.1S cells)?
**A.** no significant change

**Q.** What about the polyubiquitinated proteins ([4]; RPMI8226 cells) of the same compound?
**A.** significantly accumulate; also recorded: increase in cellular ubiquitinated proteins

**Q.** What about the “synergy with Velcade” value (MM.1S and RPMI cells; MM.1S and RPMI cells) of the same compound?
**A.** synergy

**Q.** And the “toxicity and synergy with Bortezomib” value (MM.1S and RPMI cells; MM.1S cells)?
**A.** toxicity and synergy

**Q.** And the “toxicity and synergy with Bortezomib” value (MM.1S and RPMI cells; RPMI-8226 cells)?
**A.** toxicity and synergy

Source: US10172905B1, “Treatment of protein degradation disorders” (President and Fellows of Harvard College, priority 2005, dated 2019)
